Measured values: ChEMBL document CHEMBL1201862, “PubChem BioAssay data set” (2004)
Active and inactive are the calls of the source.

What was measured:
[1] = target: T1, E3 ubiquitin-protein ligase XIAP (Homo sapiens, UniProt P98170); experiment: small molecules displacing peptide from XIAP – biochemical, IAP family, fluorescence polarization (AID 1018); format: functional
[2] = target: T1, E3 ubiquitin-protein ligase XIAP; experiment: Counter Screen using XIAP-Bir3 for Chemical Antagonists of Bir1/2 domains of IAP-family anti-apoptotic proteins. [Related pubchem assays (depositor defined):AID1018, AID1449, AID1514, AID1638, AID1749, AID1750, AID488957, AID488963]
Aminopeptidase N = target: T2, Aminopeptidase N (Plasmodium falciparum FcB1/Columbia, UniProt O96935); experiment: malaria alanyl aminopeptidase activity blockers – biochemical, fluorogenic H-Leu-NHMec substrate, 1536-well (AID 1445); parameters: species or system Plasmodium falciparum 3D7, 3D7
T2 sequence (O96935 whole entry): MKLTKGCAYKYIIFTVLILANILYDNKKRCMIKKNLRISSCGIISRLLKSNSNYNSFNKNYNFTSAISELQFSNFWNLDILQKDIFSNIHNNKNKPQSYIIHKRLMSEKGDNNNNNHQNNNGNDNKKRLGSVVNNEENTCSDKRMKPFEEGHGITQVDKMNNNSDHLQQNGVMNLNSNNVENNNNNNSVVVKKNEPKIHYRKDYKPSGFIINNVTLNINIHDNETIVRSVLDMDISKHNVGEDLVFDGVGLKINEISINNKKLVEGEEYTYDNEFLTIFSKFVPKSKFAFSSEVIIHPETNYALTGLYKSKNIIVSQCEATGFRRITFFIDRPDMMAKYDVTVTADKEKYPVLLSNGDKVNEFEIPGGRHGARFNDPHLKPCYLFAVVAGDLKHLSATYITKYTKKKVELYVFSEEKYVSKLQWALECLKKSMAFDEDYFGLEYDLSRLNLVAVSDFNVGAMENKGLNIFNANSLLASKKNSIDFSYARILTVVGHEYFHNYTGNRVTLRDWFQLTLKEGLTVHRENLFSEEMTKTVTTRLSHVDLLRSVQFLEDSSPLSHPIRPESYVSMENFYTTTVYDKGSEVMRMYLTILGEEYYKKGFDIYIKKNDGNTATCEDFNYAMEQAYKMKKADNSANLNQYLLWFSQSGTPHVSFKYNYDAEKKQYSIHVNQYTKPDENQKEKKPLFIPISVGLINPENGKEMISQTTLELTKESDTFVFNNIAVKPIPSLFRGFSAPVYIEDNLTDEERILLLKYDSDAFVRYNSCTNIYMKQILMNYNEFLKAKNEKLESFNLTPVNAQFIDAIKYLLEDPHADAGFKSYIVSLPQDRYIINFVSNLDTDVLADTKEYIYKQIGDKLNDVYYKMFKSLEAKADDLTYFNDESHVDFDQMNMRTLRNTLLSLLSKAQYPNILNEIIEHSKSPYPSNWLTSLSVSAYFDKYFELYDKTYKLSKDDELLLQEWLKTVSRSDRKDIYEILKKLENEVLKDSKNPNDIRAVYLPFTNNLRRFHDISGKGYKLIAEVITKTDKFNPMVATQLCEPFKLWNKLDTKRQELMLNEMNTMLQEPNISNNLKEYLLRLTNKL

[3] = activation of miR-122 Renilla sensor silencing – cell-based, Huh7 psiCHECK-miR122, Renilla luciferase, cherry-picked, dose response (AID 651956); format: functional;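 further: huh7 hepatoma cells stably carrying a psiCHECK-2 miR-122 sensor plasmid; renilla luciferase signal reporting endogenous miR-122 activity after 48 h compound exposure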
[4] = viability of uninfected HEp-2 cells – cell-based, HTS, cytotoxicity control for RSV inhibitor project, dose response (AID 2410); format: functional; details: human respiratory syncytial virus
Prothrombin = Prothrombin (Homo sapiens, UniProt P00734); experiment: Thrombin 1536 HTS Dose Response Confirmation. [Related pubchem assays: 1046 (Thrombin 1536 HTS; hits were confirmed in this assay)]; format: functional
P388/ADR = experiment: cells; format: functional; details: Mus musculus
P388 = experiment: cells; format: functional; details: Mus musculus
SN12K1 = experiment: cells; format: functional; details: Homo sapiens
[5] = target: T3, Rac GTPase-activating protein 1 (Homo sapiens, UniProt Q9H0H5); experiment: blockers of MgcRacGAP-driven Rac1 GTP hydrolysis – biochemical, ADP Hunter fluorescence, primary and confirmatory, confirmation (AID 624330); format: functional
T3 sequence (Q9H0H5 whole entry): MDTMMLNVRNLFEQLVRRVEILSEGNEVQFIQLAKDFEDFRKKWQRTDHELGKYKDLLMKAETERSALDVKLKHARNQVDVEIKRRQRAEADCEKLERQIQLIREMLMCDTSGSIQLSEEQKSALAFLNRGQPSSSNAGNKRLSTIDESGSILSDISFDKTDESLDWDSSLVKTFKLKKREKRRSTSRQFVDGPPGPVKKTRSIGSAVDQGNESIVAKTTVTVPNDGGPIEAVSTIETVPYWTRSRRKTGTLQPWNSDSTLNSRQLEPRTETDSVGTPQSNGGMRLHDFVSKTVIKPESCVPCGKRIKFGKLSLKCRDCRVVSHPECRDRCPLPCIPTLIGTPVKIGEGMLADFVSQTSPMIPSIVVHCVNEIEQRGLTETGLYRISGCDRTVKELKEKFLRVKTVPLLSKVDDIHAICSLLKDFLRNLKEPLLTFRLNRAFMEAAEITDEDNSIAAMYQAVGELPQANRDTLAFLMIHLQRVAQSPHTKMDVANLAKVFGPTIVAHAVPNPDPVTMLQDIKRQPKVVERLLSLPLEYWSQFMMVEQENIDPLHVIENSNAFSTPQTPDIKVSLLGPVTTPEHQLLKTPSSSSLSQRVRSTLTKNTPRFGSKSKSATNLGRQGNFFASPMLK

[6] = target: T4, Sentrin-specific protease 8 (Homo sapiens, UniProt Q96LD8); format: functional;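 further: kinetic enzyme assay of SENP8 cleaving a Nedd8 protein substrate, dose-response confirmation of screening hits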
T4 sequence (Q96LD8 whole entry): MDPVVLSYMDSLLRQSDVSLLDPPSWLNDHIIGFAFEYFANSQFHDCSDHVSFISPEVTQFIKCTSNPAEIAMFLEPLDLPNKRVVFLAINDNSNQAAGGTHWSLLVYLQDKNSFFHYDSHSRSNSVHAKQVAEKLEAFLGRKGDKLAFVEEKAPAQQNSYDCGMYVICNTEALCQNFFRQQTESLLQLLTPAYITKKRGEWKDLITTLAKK

[7] = general mammalian cell viability loss – activator set, cherry-pick, cytotoxicity control for miR-122 modulator project, dose response (AID 720690); format: functional, cell-based;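 further: HEK293T human cells scored for general mammalian cytotoxicity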
[8] = target: Heat shock protein HSP 90-alpha (Homo sapiens, UniProt P07900); format: functional, organism-based
[9] = viability of HCT116 lacking mutant beta-catenin – cell-based, human colon tumor, dose response (AID 1045); format: functional;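 further: HCT116 colon tumor cells with beta catenin knocked out; cells exposed to compound for 60 hours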
cells = format: functional
[10] = viability of PTEN-deleted HCT116 cells – cell-based, HCT116 PTEN knockout, dose response (AID 1047); format: functional;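 further: HCT116 colon tumor cells with PTEN knocked out; cells exposed to compound for 60 hours before readout; potency for loss of cell viability measured by luminescence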
[11] = THP-1 cell cytotoxicity, dose response, cytotoxicity control for non-replicating M. tuberculosis project (AID 489025); format: functional

T1 sequence (P98170 whole entry): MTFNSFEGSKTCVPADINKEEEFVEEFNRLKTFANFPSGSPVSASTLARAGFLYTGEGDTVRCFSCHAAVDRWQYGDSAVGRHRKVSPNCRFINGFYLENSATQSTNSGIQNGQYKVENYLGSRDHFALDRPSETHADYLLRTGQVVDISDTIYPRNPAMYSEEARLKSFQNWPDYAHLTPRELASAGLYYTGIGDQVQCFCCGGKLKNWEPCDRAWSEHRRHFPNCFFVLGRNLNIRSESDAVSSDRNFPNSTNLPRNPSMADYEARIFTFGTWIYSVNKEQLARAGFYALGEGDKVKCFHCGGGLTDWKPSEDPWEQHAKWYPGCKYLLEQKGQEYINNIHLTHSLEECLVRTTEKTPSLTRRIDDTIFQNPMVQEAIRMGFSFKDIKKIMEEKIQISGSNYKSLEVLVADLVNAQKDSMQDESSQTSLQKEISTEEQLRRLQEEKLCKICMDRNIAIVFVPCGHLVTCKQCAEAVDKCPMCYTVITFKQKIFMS

## c1ccc(N=Nc2cn[nH]c2-c2ccco2)cc1
[1]
  IC50: > 100 µM (not active)
[2]
  IC50: > 100 µM (inactive)

## CCN1CCN(CCCNC(=O)Cn2cc3c(n2)CCCC3)CC1
[1]
  IC50: > 100 µM (not active)
[2]
  IC50: > 100 µM (inactive)

## O=C(NNC(=O)c1ccc(O)cc1O)c1ccc(Cl)cc1
Aminopeptidase N
  IC50: 58.1 µM (active)

## OC(c1cc(C(F)(F)F)nc2c(Cl)cc(Cl)cc12)C1CCCCN1 (stereo not given)
[3]
  AC50: 21.6 µM (active)
[4]
  CC50: 15.8 µM (active)

## Cc1ccc(C(=O)n2cnnc2N)cc1C
Prothrombin
  IC50: 1.87 µM (active)

## O=C(NC(Cc1ccc(I)cc1)C(=O)O)c1ccc(I)cc1 (stereo not given)
P388/ADR
  GI50: 38 µM (inactive)
P388
  GI50: 41.4 µM (inactive)
SN12K1
  GI50: > 100 µM (inactive)

## COc1ccccc1Cc1nc(-c2ccccc2)nn(C2OC(COC(C)=O)C(OC(C)=O)C(OC(C)=O)C2OC(C)=O)c1=S (stereo not given)
P388/ADR
  GI50: 19.6 µM (inactive)
P388
  GI50: 21.9 µM (inactive)
SN12K1
  GI50: 9.95 µM (inactive)

## CC1C(=O)C(C)C(c2cccs2)N(N=O)C1c1cccs1 (stereo not given)
P388/ADR
  GI50: 36 µM (inactive)
P388
  GI50: 39.4 µM (inactive)
SN12K1
  GI50: > 100 µM (inactive)

## COc1ccc(/C=C2\CCNC2=O)cc1
P388/ADR
  GI50: 82.4 µM (inactive)
P388
  GI50: > 100 µM (inactive)
SN12K1
  GI50: > 100 µM (inactive)

## CC(NC(=O)C(C)NC(=O)C(N)CCP(C)(=O)O)C(=O)O (stereo not given)
P388/ADR
  GI50: > 100 µM (inactive)
P388
  GI50: > 31.6 µM (inactive)
SN12K1
  GI50: > 100 µM (inactive)

## C=CCn1c(=O)/c(=C/c2ccc(O)cc2)s/c1=C(/C#N)c1nnc2n1CCCCC2
[5]
  IC50: 58.7 µM (active)
Aminopeptidase N
  IC50: 51.1 µM (active)

## O=C(Nc1c(-c2ccccc2)[nH][nH]c1=O)c1cnccn1
[6]
  IC50: 42.5 µM (active)

## C/C=C/c1ccc2c(c1)O[C@@H](CN(C)CC1CCCC1)[C@H](C)CN([C@@H](C)CO)S2(=O)=O
[3]
  AC50: 42.1 µM (active)
[7]
  AC50: 22.4 µM (active)

## C[C@@H]1CN([C@@H](C)CO)C(=O)c2cccc(NC(=O)c3ccc(-c4nccs4)cc3)c2O[C@H]1CN(C)Cc1ccc2c(c1)OCO2
[7]
  AC50: 25.6 µM (active)

## NC(=O)c1ccc(/N=C/c2ccc([N+](=O)[O-])s2)cc1
[8]
  AC50: 1.98 µM (active)
[6]
  IC50: 2.47 µM (active)
[9]
  EC50: 5.3 µM (active)
cells
  IC50: 13.4 µM (active)
[10]
  EC50: 5.94 µM (active)
[11]
  CC50: 19.2 µM (active)
